The values below come from US9517254B2, “Treatment regimens” (S1 Biopharma, Inc., priority 2012, dated 2016).

Several values for one entry are separate records, joined by “and”; a condition that tells them apart may be missing. Identical values can stand only once. Numbered stars: 1 amine (or outer) side, 2 acyl side, 3 side chain; on linkers, the order of the positions; unused ones are H or OH. Bridge positions count the residues as written; N and C are the ends. Square brackets hold non-standard residues; d marks the D form. Peptide text beside a SMILES is read from it. X1 = O=C(c1ccc(O)cc1)[C@H](N[*:1])C(=O)[*:2]

Test [1] has as its system healthy volunteer. Briefly: Daily sexual desire score (0-2) in a single volunteer given four sequential 4-week treatments. It counts as in vivo, human. Particulars: for sexual desire, comparison of bupropion alone with trazodone alone: 4 weeks each; for sexual desire response: 4 weeks of treatment.
Method: A healthy volunteer in a stable marital relationship for two years with no current sexual disorders, exposed themself sequentially to four treatments, each for 4 weeks: (1) Treatment B: Instant-release (IR) Bupropion (Bup) 150 mg in the morning and 100 mg in the evening; (2) Treatment T: IR trazodone (Trz) 50 mg t.i.d.; (3) Treatment Llow, IR Trz 25 mg b.i.d. plus IR Bup 150 mg in the morning and 100 mg in the evening; and (4) Treatment Lhigh, IR Trz 50 mg t.i.d. plus IR Bup 75 mg t.i.d. A washout of 1-4 weeks occurred between each treatment.
The test used for the desire score was a two-tailed paired t test, using all scores within a given treatment as repeated measures. […] Both were from the website graphpad.com.* *http://graphpad.com/quickcalcs/chisquared1.cfm
In test [2] the test system is healthy volunteer. The test is described as follows: Patient's global impression of improvement (PGI) for sexual events (arousal, orgasm, overall satisfaction), same single-volunteer study. It is filed as in vivo, human.
Another test deals with men. The conditions noted are these: 24 IU intranasal, placebo-controlled; cited from earlier work.
The test system of the next test is patients. The conditions noted are these: transnasal, three patients; cited from earlier work.
Where [3] appears, read: wks 1-2, arousal, orgasm, overall satisfaction.

Regarding `CC(NC(C)(C)C)C(=O)c1cccc(Cl)c1` (racemic) [Bup, (±)-2-(tert-Butylamino)-1-(3-chlorophenyl)propan-1-one], the “sexual desire, comparison of bupropion alone with trazodone alone” value was “markedly superior to T” with healthy volunteer [1] (listed as B) and “superior to Treatment T” in the test on healthy volunteer [1] (listed as Treatment B). In the test with healthy volunteer [1], the “sexual desire response” value is given as “intermediate”. Also, the “0-2 Daily Desire Score, mean ± SD” value with healthy volunteer [1] (total, all four weeks) was 0.82 ± 0.55; in the test with healthy volunteer [1] (wks 1-2), 0.65 ± 0.74. Also, the “0-2 Daily Desire Score, % of max.” value is on record as 32% with healthy volunteer [1] (wks 1-2, max. = 28) and 50% with healthy volunteer [1] (wks 3-4, max. = 28). For the same molecule, the “0-2 Daily Desire Score, total” value turned out to be 9 in the test with healthy volunteer [1] (wks 1-2, max. = 28) and 14 in the test on healthy volunteer [1] (wks 3-4, max. = 28). The “arousal, % of sexual events improved” value in the test on healthy volunteer [2] (third and fourth weeks of use) is on record as 0%; with healthy volunteer [2] (total for all four weeks), 20%; in the test on healthy volunteer [2] (weeks 1-2) it was 40%. Besides, the “PGI Improved for Sexual Events, Sum of 3 domains, % improved” value in the test with healthy volunteer [2] (total, all four weeks) was 20%; in the test with healthy volunteer [2] (wks 1-2), 27%; in the test on healthy volunteer [2] (wks 3-4), 13%; with healthy volunteer [2] (wks 3-4, listed as B), 20% and 13%. Moreover, the “PGI Improved for Sexual Events, Sum of 3 domains, n/N” value is reported as 6/30 in the test with healthy volunteer [2] (total, all four weeks); 4/15 in the test with healthy volunteer [2] (setting [3]); 2/15 in the test with healthy volunteer [2] (wks 3-4). Moreover, the “arousal, sexual events improved, n/N” value with healthy volunteer [2] (weeks 1-2) is on record as “⅖”.

For the molecule `CC[C@H](C)[C@@H]1NC(=O)[C@H](C(=O)c2ccc(O)cc2)NC(=O)[C@@H](N)CSSC[C@@H](C(=O)N2CCC[C@H]2C(=O)N[C@@H](CC(C)C)C(=O)NCC(N)=O)NC(=O)[C@H](CC(N)=O)NC(=O)[C@H](CCC(N)=O)NC1=O` [OT, 1-({(4R,7S,10S,13S,16S,19R)-19-amino-7-(2-amino-2-oxoethyl)-10-(3-amino-3-oxopropyl)-16-(4-hydroxybenzoyl)-13-[(1S)-1-methylpropyl]-6,9,12,15,18-pentaoxo-1,2-dithia-5,8,11,14,17-pentaazacycloicosan-4-yl}carbonyl)-L-prolyl-L-leucylglycinamide] (H-C[X1]IQNCPLG-NH2; disulfide 1-6), the “arousal or orgasm on the Acute Sexual Experiences Scale (ASES)” value in the test on men is given as “failed to increase arousal or orgasm”. For the same molecule, the “effect on sexual function in case reports” value in the test on patients is “pro-sexual effects”.

As for `O=c1n(CCCN2CCN(c3cccc(Cl)c3)CC2)nc2ccccn12` [Trz, 2-{3-[4-(3-chlorophenyl)piperazin-1-yl]propyl}[1,2,4]triazolo[4,3-a]pyridin-3(2H)-one], in the test with healthy volunteer [1], the “sexual desire response” value is reported as “low”. Moreover, the “0-2 Daily Desire Score, % of max.” value in the test on healthy volunteer [1] (total, all four weeks) was 4%; in the test with healthy volunteer [1] (wks 1-2, max. = 28), 7%; in the test with healthy volunteer [1] (wks 3-4, max. = 28), 0, 0%. The “0-2 Daily Desire Score, mean ± SD” value in the test on healthy volunteer [1] (total, all four weeks) is given as 0.07 ± 0.38; with healthy volunteer [1] (wks 1-2), 0.14 ± 0.53. Further, the “0-2 Daily Desire Score, total” value in the test with healthy volunteer [1] (total, all four weeks) is listed as 2; in the test on healthy volunteer [1] (wks 1-2, max. = 28), 2; in the test on healthy volunteer [1] (wks 3-4, max. = 28) it was 0, 0%. Moreover, the “PGI Improved for Sexual Events, Sum of 3 domains, % improved” value is recorded as 20% in the test with healthy volunteer [2] (total, all four weeks); 25% in the test on healthy volunteer [2] (wks 1-2); 17% with healthy volunteer [2] (wks 3-4). Besides, the “PGI Improved for Sexual Events, Sum of 3 domains, n/N” value was 6/30 in the test on healthy volunteer [2] (total, all four weeks); 3/12 in the test on healthy volunteer [2] (setting [3]); 3/18 with healthy volunteer [2] (wks 3-4).
